Legend:
Type in all cases: ADME, organism-based
Settings in all cases: in vivo
[1] = Oral bioavailability in Wistar rat at 20 mg/kg by LC-MS/MS analysis
[2] = Tmax in Wistar rat at 20 mg/kg, […] by LC-MS/MS analysis
[3] = Tmax in Wistar rat at 200 mg/kg, […] by LC-MS/MS analysis
[4] = Oral bioavailability in human

## C=C1CC[C@@H]2[C@](C)(CO)[C@H](O)CC[C@@]2(C)[C@@H]1C/C=C1/C(=O)OC[C@H]1O [ANDROGRAPHOLIDE]
[1]
  bioavailability: 61.2%
[2]
  Tmax: 62.4 min
[3]
  Tmax: 39.6 min
[4]
  bioavailability: 2.67%
